This is an account of results in US6379083B1, “Method for the remediation of soil contaminated with organic halide compounds” (Hazama Corporation, priority 1998, dated 2002).

In brackets after ≈: the same amount, converted by molar mass. Where two headings read alike, the source gives them in different places.

This series can be described thus: Solubility of volatile organic halide in carbonic acid aqueous solution (Example 3). It is filed as physicochemical. Conditions: for solubility at 24 h: 20.7 °C, thermodynamic from solid, read-out: Detected amount of trichloroethylene (saturated solubility). Here is the method: Using a carbonic acid aqueous solution having carbonated ion-concentration of 7,700 mg/L (i.e., 7,700 ppm) and natural water (trade name: Eapin; carbonated ion-concentration of 0 mg/L), four kinds of carbonic acid aqueous solutions (i.e., carbonated ion-concentration: 340 mg/L, 920 mg/L, 1700 mg/L and 7,700 mg/L) were prepared.
Using a syringe, 0.14 g of excess trichloroethylene was added to the water or solution, and each linked part in the Glass-Vials was sealed by the use of Teflon tape. The mixture was stirred for 30 minutes using a magnetic stirrer, and allowed to stand for 24 hours. Thereafter, a supernatant fraction was quickly collected and extracted to give trichloroethylene. These procedures were performed at temperature of 20.7° C.
As for the above natural water and carbonic acid aqueous solutions before the injection into the glass-bialbin, their carbonated ion-concentrations were measured by means of neutralization titration. The titration was conducted according to strontium chloride/monobasic acid-base titration described in JIS K 0101 25.
To the supernatant fraction obtained above, n-hexane for test of remaining agriculture chemical was added in the same amount as the fraction, and vigorously stirred to give an n-hexane layer. The layer was analyzed by a gas chromatography in the following conditions:
Analyzer: GC-17A type available from Shimadzu Corp.
Column: AQUATAC 75 m×0.53 mmφ
Column Temperature: 210° C.

What is called solubility is the concentration that dissolves in the medium under given conditions. In the case of `ClC=C(Cl)Cl` [trichloroethylene], the solubility at 24 h (aqueous buffer, Carbonated ion concentration 340 mg/L) worked out at 780 µg/mL (≈ 5.94 mM); the solubility at 24 h (aqueous buffer, Carbonated ion concentration 920 mg/L) was determined as 1000 µg/mL (≈ 7.61 mM); the solubility at 24 h (aqueous buffer, Carbonated ion concentration 7700 mg/L) came out at 1300 µg/mL (≈ 9.89 mM); the solubility at 24 h (natural water (Eapin; carbonated ion concentration 0 mg/L), water, Carbonated ion concentration 0 mg/L (natural water)) was 750 µg/mL (≈ 5.71 mM). Besides, for the setting “Carbonated ion concentration 1700 mg/L, 20.7° C.”, the “Detected amount of trichloroethylene (saturated solubility)” value was 1100 µg/mL.
